Tests used:
βARK [1] = target: T1, βARK (Homo sapiens, UniProt P25098, A211R/K465R/R422H); test: βARK inhibition AlphaScreen assay (phosphorylation of biotinylated CCR5 peptide); type: biochemical; details: assay validation, read-out: apparent Km (ATP dependence)
T1 sequence (P25098 1-689 A211R/R422H/K465R): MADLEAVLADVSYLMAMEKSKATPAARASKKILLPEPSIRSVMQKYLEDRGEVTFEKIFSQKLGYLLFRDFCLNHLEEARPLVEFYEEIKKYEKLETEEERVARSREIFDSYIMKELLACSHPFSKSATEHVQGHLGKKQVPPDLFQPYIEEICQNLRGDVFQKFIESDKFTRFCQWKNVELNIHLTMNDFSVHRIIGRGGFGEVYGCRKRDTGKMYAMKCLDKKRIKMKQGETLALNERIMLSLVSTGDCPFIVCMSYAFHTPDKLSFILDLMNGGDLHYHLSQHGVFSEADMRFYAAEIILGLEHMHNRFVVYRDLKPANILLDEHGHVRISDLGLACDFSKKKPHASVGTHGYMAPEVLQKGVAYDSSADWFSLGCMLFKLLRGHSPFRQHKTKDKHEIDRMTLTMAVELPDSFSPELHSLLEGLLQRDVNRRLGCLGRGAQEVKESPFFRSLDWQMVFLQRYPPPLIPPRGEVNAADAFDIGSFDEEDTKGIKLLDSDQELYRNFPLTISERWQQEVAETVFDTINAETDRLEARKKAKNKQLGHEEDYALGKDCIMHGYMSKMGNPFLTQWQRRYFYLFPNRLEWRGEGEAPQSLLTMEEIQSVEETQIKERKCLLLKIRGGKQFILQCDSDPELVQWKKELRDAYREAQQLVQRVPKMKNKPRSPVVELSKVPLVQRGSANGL
Excerpt: (§1) In the βARK inhibition experiment biotinylated hunian CC ehemokine receptor 5, herein abbreviated CCR5 peptide (Seq. ID No. 1) is phosphorylated by the kinase. The phosphorylated serine is recognized by a specific antibody which, in turn, is bound to protein A coupled acceptor beads. The biotinylated N-terminus of the CCR5 peptide is coupled to streptavidin-coated donor heads. Thus, in the absence of inhibitors an AlphaScreen signal is detected that decreases when the enzymatic activity in inhibited. […]
(§2) Percent-inhibition values are calculated as: […]

βARK [2] = target: T2, βARK (Homo sapiens, UniProt P25098); test: as above; type: biochemical; details: 0.5 μM βARK, 100 nM CCR5 peptide, 10 μM ATP, 120 min room temperature, read-out: IC50 (dose-response curve)
T2 sequence (P25098 1-689 A211R/R422H/K465R): T1 sequence (P25098 1-689 A211R/R422H/K465R)
Excerpt: as §1, §2

IC50 (βARK [2]) [nM] | Compound | Km (βARK [1]) [µM]
– | Nc1ncnc2c1ncn2[C@@H]1O[C@H](COP(=O)(O)OP(=O)(O)OP(=O)(O)O)[C@@H](O)[C@H]1O [ATP] | 4
50 | heparin | –
